Reference: ChEMBL document CHEMBL5729557, “5-membered heteroaryl carboxamide compounds for treatment of HBV” (2023)

Assay: Assay Measuring Activity of Test Compounds on Viral Production from HepAD38 Cells: HepAD38 cells grown in a T-150 flask (Corning, cat #: 430825) with Growth Medium (DMEM/F12 (1:1) (Hyclone, cat #: SH30023.02), 1× Pen/Strep (Invitrogen, cat #: 15140-122), 10% FBS (Tissue Culture Biologics, cat #: 101), 250 μg/mL G418 (Alfa Aesar, cat #: J62671), 1 μg/mL Tetracycline (Teknova, cat #: T3320)) were detached with 0.25% trypsin-EDTA to (Invitrogen, cat #: 25200-056). Tetracycline-free treatment medium (15 mL DMEM/F12 (1:1) 1× Pen/step, with 2% FBS, Tet-system approved (Clontech, cat #: 631106) were then added to mix, transferred into a 50 ml conical tube (Falcon, cat #: 21008-918,) and spun at 1300 rpm for 5 min. Pelleted cells were then re-suspended/washed with 50 mL of 1×DPBS (Invitrogen, cat #: 14190-136) 2 times and 50 mL treatment medium twice. HepAD38 cells were then re-suspended with 10 mL of treatment medium, syringed and counted. Wells of 96-well clear bottom TC plate (Corning, cat #: 3904,) were seeded at 50,000 cells/well in 180 μL of treatment medium, and 20 μL of either 10% DMSO (Sigma, cat #: D4540) as controls or a 10× solution of test compounds in 10% DMSO in treatment media was added for a final compound concentration starting at 10 μM, and plates were incubated in 5% CO2 incubator at 37° C. for 5 days.Subsequently viral load production was assayed by quantitative PCR (qPCR) of the HBV core sequence. PCR reaction mixture containing forward primers HBV-f 5′-CTGTGCCTTGGGTGGCTTT-3′ (IDT DNA), Reverse primers HBV-r 5′-[…]-3′ (IDT DNA), Fluorescent TaqMan™ Probes HBV-probe 5′-FAM/AGCTCCAAA/ZEN/[…]/3IABkFQ-3′ (IDT DNA), 10 μL/well of PerfeCTa® qPCR ToughMix® (Quanta Biosciences, Cat #: 95114-05K), and 6 μL/well of DEPC water (Alfa Aesar, cat #: J62087) was prepared. […] of supernatant was added to 16 μL of the reaction mixture in a qPCR plate (Applied Biosytems, Cat #: 4309849), sealed with a film (Applied Biosystems, Cat #: 4311971), centrifuged for a few seconds, and subsequently run on an Applied Biosystems VIIA7. The PCR mixture was incubated at 45° C. for 5 min, then 95° C. for 10 min, followed by 40 cycles of 10 seconds at 95° C. and 20 seconds at 60° C. Viral load was quantified against known HBV DNA standards by using ViiA™ 7 Software. Viral load in the supernatant from wells with treated cells were compared against viral load in supernatant from DMSO control wells (>3 per plate). Cell viability assay was performed with CellTiter-Glo Luminescent Cell Viability Assay (Promega, cat #: G7573) with modification. Mixed appropriate amount of CellTiter-Glo (CTG) 1×DPBS in a 1:1 ratio, added 100 uL of the mixture to each well followed completely removal of all supernatant in each well without touching cell surface. Incubated the plate at room temperature for 10 min on an orbital shaker, and then read the plate with a plate reader (TECAN M1000 or Envision).
Details: HePAD38

Row | Structure (SMILES) | EC50
1 | CCC1OCC2(CC3C[C@H](c4nn(C)c(N)c4C(=O)Nc4ccc(F)c(Cl)c4)C[C@@H]3C2)O1 (some centres undefined) | < 100 nM
2 | CCS(=O)(=O)CC1(O)CC2C[C@@H](c3nn(C)c(N)c3C(=O)Nc3ccc(F)c(Cl)c3)C[C@@H]2C1 (some centres undefined) | < 100 nM
3 | CN(C)S(=O)(=O)CC1(O)CC2CC(c3nn(C)c(N)c3C(=O)Nc3ccc(F)c(Cl)c3)CC2C1 (centres undefined) | < 100 nM
4 | Cn1nc(C2CC3CSCC3C2)c(C(=O)Nc2ccc(F)c(Cl)c2)c1N (centres undefined) | < 100 nM
5 | Cn1nc([C@@H]2CC3CC(O)(CS(=O)(=O)CCO)C[C@@H]3C2)c(C(=O)Nc2ccc(F)c(Cl)c2)c1N (some centres undefined) | < 100 nM
6 | CCS(=O)(=O)CC1(O)CC2C[C@@H](c3nn(C)c(N)c3C(=O)Nc3ccc(F)c(Cl)c3)C[C@H]2C1 (some centres undefined) | < 100 nM
7 | Cn1nc([C@@H]2CC3C[S+]([O-])C[C@@H]3C2)c(C(=O)Nc2ccc(F)c(Cl)c2)c1N (some centres undefined) | in the range around 5250 nM
8 | CCC1OCC2(CC3C[C@H](c4nn(C)c(N)c4C(=O)Nc4ccc(F)c(Cl)c4)C[C@H]3C2)O1 (some centres undefined) | < 100 nM
9 | Cn1nc(C2CC3CC(O)(CC(=O)O)CC3C2)c(C(=O)Nc2ccc(F)c(Cl)c2)c1N (centres undefined) | < 100 nM
10 | Cn1nc(C2CCC(c3cnc(C(F)(F)F)s3)C2)c(C(=O)Nc2ccc(F)c(Cl)c2)c1N (centres undefined) | in the range around 5250 nM
11 | Cn1nc([C@@H]2CC3CNC(=O)C[C@@H]3C2)c(C(=O)Nc2ccc(F)c(Cl)c2)c1N (some centres undefined) | in the range around 300 nM
12 | Cn1nc([C@@H]2CC3CC(O)(CS(C)(=O)=O)C[C@@H]3C2)c(C(=O)Nc2ccc(F)c(Cl)c2)c1N (some centres undefined) | < 100 nM
13 | Cn1nc(C2CC3CC(O)(COC(F)F)CC3C2)c(C(=O)Nc2ccc(F)c(Cl)c2)c1N (centres undefined) | < 100 nM
14 | Cn1nc([C@@H]2CC3CC(O)(CSCCN4CCOCC4)C[C@@H]3C2)c(C(=O)Nc2ccc(F)c(Cl)c2)c1N (some centres undefined) | < 100 nM
15 | CC(C)C1(O)CC2C[C@@H](c3nn(C)c(N)c3C(=O)Nc3ccc(F)c(Cl)c3)C[C@H]2C1O (some centres undefined) | < 100 nM
16 | Cn1nc([C@@H]2CC3CC(O)(CN4CCCCC4)C[C@H]3C2)c(C(=O)Nc2ccc(F)c(Cl)c2)c1N (some centres undefined) | in the range around 300 nM
17 | Cn1nc(C2CC3CC(N)CC3C2)c(C(=O)Nc2ccc(F)c(Cl)c2)c1N (centres undefined) | in the range around 300 nM

Row | Structure (SMILES) | EC50
18 | Cn1nc([C@@H]2CC3CC(O)(C[S+]([O-])CC(F)(F)F)C[C@@H]3C2)c(C(=O)Nc2ccc(F)c(Cl)c2)c1N (some centres undefined) | < 100 nM
19 | Cn1nc([C@@H]2CC3CC(O)(CS(C)(=O)=O)C[C@H]3C2)c(C(=O)Nc2ccc(F)c(Cl)c2)c1N (some centres undefined) | < 100 nM
20 | Cn1nc(C2CC3CC(N4CCNC(=O)C4)CC3C2)c(C(=O)Nc2ccc(F)c(C#N)c2)c1N (centres undefined) | < 100 nM
21 | Cn1nc([C@@H]2CC3CC(O)(CS(=O)(=O)CCCN4CCCCC4)C[C@H]3C2)c(C(=O)Nc2ccc(F)c(Cl)c2)c1N (some centres undefined) | in the range around 300 nM
22 | Cn1nc([C@H]2CC3CC(O)(C[S+]([O-])CC(F)(F)F)C[C@H]3C2)c(C(=O)Nc2ccc(F)c(Cl)c2)c1N (some centres undefined) | < 100 nM
23 | CN1CC2CC(c3nn(C)c(N)c3C(=O)Nc3ccc(F)c(Cl)c3)CC2C1 (centres undefined) | in the range around 5250 nM
24 | Cn1nc(C2CCC(c3csc(C(F)(F)F)n3)C2)c(C(=O)Nc2ccc(F)c(Cl)c2)c1N (centres undefined) | in the range around 5250 nM
25 | CS(=O)(=O)CC1(O)CC2CC(c3n[nH]c(N)c3C(=O)Nc3ccc(F)c(Cl)c3)CC2C1 (centres undefined) | < 100 nM
26 | Cn1nc([C@@H]2CC3CC(O)(CSCCO)C[C@H]3C2)c(C(=O)Nc2ccc(F)c(Cl)c2)c1N (some centres undefined) | < 100 nM
27 | COc1cc(-c2cn(C)cn2)ccc1[C@H]1CC[C@@H](c2nn(C)c(N)c2C(=O)Nc2ccc(F)c(Cl)c2)C1 | in the range around 300 nM
28 | COc1cc(-c2ncc[nH]2)ccc1[C@@H]1CC[C@@H](c2nn(C)c(N)c2C(=O)Nc2ccc(F)c(Cl)c2)C1 | < 100 nM
29 | Cn1nc([C@@H]2CC3CC(O)(CC(=O)O)C[C@H]3C2)c(C(=O)Nc2ccc(F)c(Cl)c2)c1N (some centres undefined) | < 100 nM
30 | Cn1nc([C@H]2CC3CC(O)(C[S+]([O-])CC(F)(F)F)C[C@@H]3C2)c(C(=O)Nc2ccc(F)c(Cl)c2)c1N (some centres undefined) | < 100 nM
31 | CNC1CC2CC(c3nn(C)c(N)c3C(=O)Nc3ccc(F)c(Cl)c3)CC2C1 (centres undefined) | in the range around 300 nM
32 | Cn1nc([C@@H]2CC3CC(O)(CS(=O)(=O)C(C)(C)C)C[C@@H]3C2)c(C(=O)Nc2ccc(F)c(Cl)c2)c1N (some centres undefined) | < 100 nM
33 | Cn1nc(C2CCC(c3cccnc3)C2)c(C(=O)Nc2ccc(F)c(Cl)c2)c1N (centres undefined) | < 100 nM
34 | Cn1nc([C@@H]2CC3C[S+]([O-])C[C@H]3C2)c(C(=O)Nc2ccc(F)c(Cl)c2)c1N (some centres undefined) | in the range around 5250 nM
